Data on eleven molecules can be found in patent US11931356B1, “Compositions and methods for treating human papilloma virus infections” (priority 2022, dated 2024).

In test [1] the target is C51S (cysteine 51 mutation to serine) HPV-16 E6 protein (Human papillomavirus type 16, UniProt P03126, C58S). Briefly: whole protein mass spectra of mutant C51S HPV-16 E6 protein upon exposure to compound. It counts as binding, human papilloma virus 16. Conditions: whole protein mass spectrum; cysteine 51 replaced by serine.
The target in test [2] is HPV-16 E6 protein with Cys51 (Human papillomavirus type 16, UniProt P03126). It counts as binding. Conditions: whole protein mass spectrum.
Sequence of HPV-16 E6 protein with Cys51 (P03126 8-158): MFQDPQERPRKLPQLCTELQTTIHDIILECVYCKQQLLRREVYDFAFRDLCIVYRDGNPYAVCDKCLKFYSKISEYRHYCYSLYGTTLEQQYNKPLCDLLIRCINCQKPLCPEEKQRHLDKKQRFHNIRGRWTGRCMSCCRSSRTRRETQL

Sequence of C51S (cysteine 51 mutation to serine) HPV-16 E6 protein (P03126 8-158 C58S): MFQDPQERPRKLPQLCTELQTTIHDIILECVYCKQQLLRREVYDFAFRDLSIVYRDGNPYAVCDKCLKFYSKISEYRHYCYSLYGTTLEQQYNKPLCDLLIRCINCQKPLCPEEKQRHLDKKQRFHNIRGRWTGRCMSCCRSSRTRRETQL

Consider `C=CC(=O)N1CCN(c2nc(CCc3ccc(F)c(O)c3)nc3sc4c(c23)CCCC4)CC1` [Compound 3], for which, in test [1], the “mass shift of the C51S HPV-16 E6 protein upon exposure to compound” value is recorded as “lack of mass shift”. Moreover, the “mass shift of the HPV-16 E6 protein upon exposure to compound (covalent bonding at Cys51)” value (shortened to “mass shift … (covalent bonding at Cys51)”) in test [2] is “mass shift”.

Regarding `C=CC(=O)N1CCN(C(=O)CN2CCc3sccc3C2c2cccc3ncccc23)CC1` (stereo not shown) [Compound 9], the “mass shift of the C51S HPV-16 E6 protein upon exposure to compound” value in test [1] is given as “lack of mass shift”. For the same molecule, the “mass shift … (covalent bonding at Cys51)” value in test [2] is listed as “mass shift”.

On to `C=CC(=O)N1CCN(c2nc(CCc3cccc(OC)c3)nc3ccccc23)C(C)C1` (stereo not shown) [Compound 11], for which the “mass shift of the C51S HPV-16 E6 protein upon exposure to compound” value in test [1] is reported as “lack of mass shift”. Moreover, the “mass shift … (covalent bonding at Cys51)” value in test [2] is “mass shift”.

Regarding `C=CC(=O)N1CCN(c2nc(C3CCCC3)nc3cccc(F)c23)CC1` [Compound 8], the “mass shift of the C51S HPV-16 E6 protein upon exposure to compound” value in test [1] is given as “lack of mass shift”. In test [2], the “mass shift … (covalent bonding at Cys51)” value is listed as “mass shift”.

As to `C=CC(=O)N1CCN(c2nc(CCc3ccc(OC)c(OC)c3)nc3sc4c(c23)CCCC4)CC1` [Compound 6], the “mass shift of the C51S HPV-16 E6 protein upon exposure to compound” value in test [1] was “lack of mass shift”. Moreover, in test [2], the “mass shift … (covalent bonding at Cys51)” value is reported as “mass shift”.

Consider `C=CC(=O)N1CCN(c2nc(CCc3cc(F)c(OC)c(F)c3)nc3sc4c(c23)CCCC4)CC1` [Compound 4], for which the “mass shift of the C51S HPV-16 E6 protein upon exposure to compound” value in test [1] is on record as “lack of mass shift”. Further, the “mass shift … (covalent bonding at Cys51)” value in test [2] is “mass shift”.

As to `C=CC(=O)N1CCN(C(=O)CN2CCc3sccc3C2c2cccc3ccccc23)CC1` (stereo not shown) [Compound 7], in test [1], the “mass shift of the C51S HPV-16 E6 protein upon exposure to compound” value is reported as “lack of mass shift”. The “mass shift … (covalent bonding at Cys51)” value in test [2] was “mass shift”.

Take `C=CC(=O)N1CCN(c2nc(CCc3ccc(OC)c(F)c3)nc3sc4c(c23)CCCC4)CC1` [Compound 10]: the “mass shift of the C51S HPV-16 E6 protein upon exposure to compound” value in test [1] is on record as “lack of mass shift”. Besides, the “mass shift … (covalent bonding at Cys51)” value in test [2] is “mass shift”.

With `C=CC(=O)N1CCN(c2nc(CCc3ccc(F)c(OC)c3)nc3sc4c(c23)CCCC4)CC1` [Compound 1], the “mass shift of the C51S HPV-16 E6 protein upon exposure to compound” value in test [1] was “lack of mass shift”. Also, the “mass shift … (covalent bonding at Cys51)” value in test [2] is “mass shift”.

In the case of `C=CC(=O)N1CCN(c2nc(CCc3ccc(O)c(F)c3)nc3sc4c(c23)CCCC4)CC1` [Compound 2], the “mass shift of the C51S HPV-16 E6 protein upon exposure to compound” value in test [1] is listed as “lack of mass shift”. Besides, the “mass shift … (covalent bonding at Cys51)” value in test [2] is given as “mass shift”.

For the molecule `C=CC(=O)N1CCN(c2nc(CCc3cnc(OC)c(F)c3)nc3sc4c(c23)CCCC4)CC1` [Compound 5], in test [1], the “mass shift of the C51S HPV-16 E6 protein upon exposure to compound” value is on record as “lack of mass shift”. Also, the “mass shift … (covalent bonding at Cys51)” value in test [2] is given as “mass shift”.
